Drawing on patent US6281352, this text covers ring closure, yield of all isomers for ten compounds.

SMILES strings stand for the structures. Read-outs that look alike come from different tables or passages of the source.

Take `COC(=O)[C@@H]1Cc2ccc(cc2)OCCC[C@H](C(=O)OC(C)(C)C)[C@@H](CC(C)C)C(=O)N1`: the ring closure, yield of all isomers (from COC(=O)[C@H](Cc1ccc(O)cc1)NC(=O)[C@H](CC(C)C)[C@H](CCCBr)C(=O)OC(C)(C)C, ether bond, Cs2CO3, DMF, 32.8 mM, 80.0 °C, 0.75 h) stood at 74%.
As for `COC(=O)[C@@H]1CCCc2ccc(cc2)OCCC[C@H](C(=O)OC(C)(C)C)[C@@H](CC(C)C)C(=O)N1`, the ring closure, yield of all isomers (from COC(=O)[C@H](CCCc1ccc(O)cc1)NC(=O)[C@H](CC(C)C)[C@H](CCCBr)C(=O)OC(C)(C)C, ether bond, Cs2CO3, DMF, 8.7 mM, 0.0 °C, 2.0 h) is 32%.
`CNC(=O)[C@@H]1CCCCN(S(=O)(=O)C(F)(F)F)CCC[C@H](C(=O)OC(C)(C)C)[C@@H](CC(C)C)C(=O)N1`: the ring closure, yield of all isomers (from CNC(=O)[C@H](CCCCNS(=O)(=O)C(F)(F)F)NC(=O)[C@H](CC(C)C)[C@H](CCCO)C(=O)OC(C)(C)C, amine bond, DIAD/PPh3, THF, 15.6 mM, 16.0 h, 2 steps) came to 52%.
`CNC(=O)[C@@H]1CCC(=O)OCCC[C@H](C(=O)OC(C)(C)C)[C@@H](CC(C)C)C(=O)N1`: where the note is “from CNC(=O)[C@H](CCC(=O)O)NC(=O)[C@H](CC(C)C)[C@H](CCCO)C(=O)OC(C)(C)C, ester bond, PPh3/DIAD, THF, 9.4 mM, 16.0 h, 2 steps”, the ring closure, yield of all isomers was 24%.
Compound `CNC(=O)[C@@H]1CCCCN(S(=O)(=O)c2c(C)cc(C)cc2C)CCC[C@H](C(=O)OC(C)(C)C)[C@@H](CC(C)C)C(=O)N1` yielded a ring closure, yield of all isomers (from CNC(=O)[C@H](CCCCNS(=O)(=O)c1c(C)cc(C)cc1C)NC(=O)[C@H](CC(C)C)[C@H](CCCO)C(=O)OC(C)(C)C, amine bond, PPh3/DIAD, THF, 21.5 mM, 16.0 h, 2 steps) of 30%.
Compound `C=C1CO[C@H](COCc2ccccc2)[C@@H](C/C=C/c2ccccc2)C(=O)N[C@H](C(=O)NC)CCCN(C(C)=O)C1` yielded a ring closure, yield of all isomers (from C=C(CBr)CO[C@H](COCc1ccccc1)[C@@H](C/C=C/c1ccccc1)C(=O)N[C@@H](CCCN)C(=O)NC, amine bond, diisopropylethylamine, acetonitrile, 2.1 mM, 3 steps) of 76%.
For `CNC(=O)[C@@H]1CCCCNC(=O)CC[C@H](C(=O)OC(C)(C)C)N[C@@H](CCc2ccccc2)C(=O)N1`, the ring closure, yield of all isomers (from CNC(=O)[C@@H](N)CCCCNC(=O)CC[C@@H](N[C@@H](CCc1ccccc1)C(=O)O)C(=O)OC(C)(C)C, amide bond, BOP, DMF, 24.0 h) turned out to be 16%.
As for `CNC(=O)[C@@H]1CCCCN(S(=O)(=O)c2cn(C)cn2)CCC[C@H](C(=O)OC(C)(C)C)[C@@H](CC(C)C)C(=O)N1`, where the note is “from CNC(=O)[C@H](CCCCNS(=O)(=O)c1cn(C)cn1)NC(=O)[C@H](CC(C)C)[C@H](CCCO)C(=O)OC(C)(C)C, amine bond, PPh3/DIAD, THF, 17.1 mM, 16.0 h”, the ring closure, yield of all isomers amounted to 52%.
The compound `CNC(=O)[C@@H]1CCCCN(S(=O)(=O)c2ccc([N+](=O)[O-])cc2)CCC[C@H](C(=O)OC(C)(C)C)[C@@H](CC(C)C)C(=O)N1` returned a ring closure, yield of all isomers (from CNC(=O)[C@H](CCCCNS(=O)(=O)c1ccc([N+](=O)[O-])cc1)NC(=O)[C@H](CC(C)C)[C@H](CCCO)C(=O)OC(C)(C)C, amine bond, PPh3/DIAD, THF, 24.7 mM) of 26%.
Consider `CNC(=O)[C@@H]1CCCCNC(=O)C[C@H](C(=O)OC(C)(C)C)N[C@@H](CCc2ccccc2)C(=O)N1`, for which, for the setting “from CNC(=O)[C@@H](N)CCCCNC(=O)C[C@@H](N[C@@H](CCc1ccccc1)C(=O)O)C(=O)OC(C)(C)C, amide bond, BOP, DMF, 24.0 h, 2 steps”, the ring closure, yield of all isomers came out at 30%.
